A word on the MIC: it is the smallest concentration in the dilution series that meets the test's criterion for growth inhibition. Low values mean greater potency, high ones weaker potency.

In experiment [1] the test system is Pseudomonas aeruginosa ATCC 27853. Nature of the experiment: MIC, broth microdilution. It is filed as cell-based. As to conditions: 37 °C, 18–20 h, triplicate. An excerpt:
(§1) Analogs were serially diluted two-fold from stock solutions.

In experiment [2] the test system is Salmonella enterica ATCC 14028. The experiment can be described thus: MIC, broth microdilution. It is filed as cell-based. Conditions: 37 °C, 18–20 h, triplicate.
From the text: as §1
Background: In broth dilution the organism is exposed to a series of concentrations in liquid medium.

In experiment [3] the test system is Bacillus subtilis ATCC 23857. The experiment can be described thus: MIC, broth microdilution. It is filed as cell-based. As to conditions: 37 °C, 18–20 h, triplicate.
From the text: as §1

Experiment [4] deals with Escherichia coli ATCC 25922. Nature of the experiment: MIC, broth microdilution. Format: cell-based. Conditions: 37 °C, 18–20 h, triplicate.
From the text: as §1

For experiment [5], the system named is Staphylococcus aureus ATCC 29213. Format: cell-based.
From the text: as §1

Experiment [6] deals with Staphylococcus aureus ATCC 43300. It is filed as cell-based. As to conditions: ATCC 43300.
From the text: as §1

The subject of experiment [7] is Staphylococcus and Streptococcus species. As to conditions: stereochemistry of the β-hydroxyl group; cited from earlier work. An excerpt:
Among promising AMLPs of bacterial origin, humimycins show very attractive activities against S. aureus. Humimycins A 1 and B 2 are composed of a heptapeptide bearing an N-terminal β-hydroxy myristoyl lipid chain (Table 1). […] A novel approach was employed to discover humimycins by combining bioinformatics and chemical synthesis. Rather than depending on bacterial cultures to discover and produce ... || β-Hydroxymyristic acid is specifically incorporated into lipopeptides like surfactin by certain enzymes in Bacillus species. […] The presence of a hydroxyl group imparts some amphiphilicity, aiding interaction with bacterial mem ...

Another experiment has as its system S. aureus ATCC 29213. The experiment can be described thus: microbe, parasite or virus in culture. Conditions: Staphylococcus aureus, ATCC29213, read-out: Inhibition zone diameter. On the procedure:
Each agar well was loaded with 70 µL of a peptide solution (256 µg/mL).
For the agar diffusion assay, the bacterial strain was cultured overnight at 37 °C in the previously described media. Cultures were then inoculated at 1% (v/v) in a soft agar medium containing 1.5% (w/v) agar. Wells were created in the inoculated agar plates, and 70 µL of the humimycin analog solution (256 µg/mL) was added to each well. Kanamycin sulfate (256 µg/mL) and 5% dimethyl sulfoxide (DMSO) in water were included as positive and negative control, respectively.

SMILES strings stand for the structures. Values after ≈ are worked out from the molar mass of the structure shown. Counter-ions that a name gives are not always drawn. Non-standard residues stand in square brackets, D forms with d. Residues, ends and D or L forms follow the SMILES beside them. *: point of attachment. Tetradecanoyl(3S-OH) = CCCCCCCCCCC[C@H](O)CC(=O)*

For the compound `CCCCCCCCCCC[C@H](O)CC(=O)N[C@@H](Cc1ccc(O)cc1)C(=O)N[C@@H](CO)C(=O)N[C@H](Cc1ccc(O)cc1)C(=O)N[C@@H](Cc1ccccc1)C(=O)N[C@@H](C(=O)N[C@H](C(=O)N[C@H](C(=O)O)C(C)C)C(C)C)[C@H](C)O` [compound 1, reference compound] ({Tetradecanoyl(3S-OH)}-YS[dY]F[dT]VV-OH; N-terminus and C-terminus assumed), the minimal inhibitory concentration (MIC) result is “- (No antimicrobial activity was detected up to 256 µg/mL)” in experiment [1]; “- (No antimicrobial activity was detected up to 256 µg/mL)” in experiment [2]; “- ^b (No antimicrobial activity was detected up to 256 µg/mL)” in experiment [3]; “- (No antimicrobial activity was detected up to 256 µg/mL)” in experiment [4]; 8 mg/L (≈ 7.24 µM) in experiment [5]; 16 mg/L (≈ 14.5 µM) in experiment [6]. The “potency of (S)-isomer relative to (R)-isomer” value in experiment [7] is “four-fold more potent”.

With `NC[C@H]1O[C@H](O[C@H]2[C@H](O)[C@@H](O[C@H]3O[C@H](CO)[C@@H](O)[C@H](N)[C@H]3O)[C@H](N)C[C@@H]2N)[C@H](O)[C@@H](O)[C@@H]1O` [Kanamycin sulfate], the zone of inhibition at 256 µg/mL with S. aureus ATCC 29213 stood at 24 mm.

(Values after PMC12024397, “Structure–Activity Study of the Antimicrobial Lipopeptide Humimycin A and Screening Against Multidrug-Resistant Staphylococcus aureus” (Antibiotics, 2025).)
